# Experimental data as given in PMC9767416, “Discovery of small molecule mechanistic target of rapamycin inhibitors as anti-aging and anti-cancer therapeutics” (Frontiers in Aging Neuroscience, 2022).
# How the values were obtained:
# Format in all cases: cell-based, human
# [1] = system: temozolomide (TMZ)-induced senescent U87 cells; test: Crystal violet and resazurin assays in TMZ-induced senescent U87; details: 0–100 μM, 24 h
# Protocol: To obtain ionizing radiation (IR)-induced senescent cells, proliferating RPE-1 cells were exposed to a single dose of X-rays (20 Gy) using Pantak HF160 (Gulmay, Surrey, UK) X-ray instrument equipped with Pantak Seifert HF320 generator, MXR-161 X-ray tube (Comet AG, Flamatt, Switzerland), and an aluminum filter using current 1–10 mA. After irradiation, the cells were cultured for an additional 7 days until the development of the senescent phenotype ([Salovska et al., 2022]). To induce docetaxel-induced senescence (DIS), BJ cells were exposed to 5 nM docetaxel for 7 days, as described previously ([Sapega et al., 2018]). […]
# For the crystal violet assay, the cells were washed twice with 150 μL PBS and stained with 30 μL 0.5% (w/v) crystal violet in 20% methanol for 15 mins. […] The absorbance was read at 595 nm using a microplate reader (Envision, PerkinElmer, Waltham, MA, USA). The absorbance of crystal violet in treated cells was expressed as a percentage of absorbance in untreated cells. Each condition was measured at least in triplicate.
# For the resazurin assay, 200 μL of the culture medium of each well was exchanged for 100 μL of resazurin (stock solution 30 mg/mL; Sigma, St. Louis, MO, USA) diluted 10 times in the culture medium, and the cells were incubated at 37°C for 1–3 h. Reading of fluorescence was done using a microplate reader (PerkinElmer, Waltham, MA, USA). […]
# U87 cells = test: Time-lapse microscopy with annexin V staining of proliferating U87
# Protocol: (§1) For auto-monitoring of cells, Incucyte SX1 Live-Cell Analysis System (Sartorius, Göttingen, Germany), located in an incubator maintained at 37°C under a 5% CO2 atmosphere and 95% humidity, was utilized. The images (1,408 × 1,040 pixels at 1.24 microns/pixel) were acquired using a 10× objective lens in phase contrast, red fluorescence (excitation: 585 ± 20 nm, emission: 635 [625, 705] nm, acquisition time: 100 ms) channels every 60 min during 72 h. The first image was acquired 30 min after adding compounds. The images were processed to measure cell confluence using Incucyte software (version 2022A). Annexin V – Dy647, Apronex (diluted 1:1,000) was used for apoptotic cell staining.
# RPE-1 cells = test: Time-lapse microscopy (Incucyte) of proliferating RPE-1; details: 0, 10, 50, 80, 100 μM, 72 h
# Protocol: as §1
# BJ, RPE-1 and U373 cells = test: Crystal violet and resazurin proliferation screen in proliferating cells; details: RPE-1, U373, 0, 10, 50, 80, 100 μM, 24 h
# Protocol: All cell lines used in the study were obtained from the American Type Culture Collection (ATCC, Manassas, VA, USA). Human telomerase-immortalized retinal pigment epithelial cells RPE-1, glioblastoma U-87 MG, glioblastoma U373MG, glioblastoma T98G, glioblastoma A-172, breast adenocarcinoma MDA-MB-231, prostate carcinoma DU-145, and non-small cell lung cancer NCI-H1299 cell lines were cultured in Dulbecco’s modified Eagle’s medium (DMEM, Thermo Fisher Scientific, Waltham, MA, USA) with high glucose (4.5 g/L). Primary human skin BJ fibroblasts were cultured in Dulbecco’s modified Eagle’s medium (DMEM, Thermo Fisher Scientific, Waltham, MA, USA) with low glucose (1 g/L). Both cell culture media were supplemented with 10% fetal bovine serum (FBS, Gibco/Thermo Fisher Scientific) and non-essential amino acids (NEAA), 100 units/mL of penicillin, and 100 μg/mL of streptomycin (Sigma-Aldrich). Cells were kept at 37°C under a 5% CO2 atmosphere and 95% humidity.
# Twenty-four hours before treatment, cells were plated in 96-well plates at densities of 2,850 cells per well for senescent RPE-1 (IR-RPE-1), 3,350 cells per well for proliferating RPE-1 and senescent BJ (DIS-BJ), and 5,000 cells per well for U373, T98, A172, U87, TMZ-U87, and proliferating BJ cells.
# For the crystal violet assay, the cells were washed twice with 150 μL PBS and stained with 30 μL 0.5% (w/v) crystal violet in 20% methanol for 15 mins. Next, the plates were washed five times with ddH2O and left to dry overnight. Crystal violet was solubilized with 75 μL 0.2% Triton X-100 (Sigma) in PBS for 15 mins. The absorbance was read at 595 nm using a microplate reader (Envision, PerkinElmer, Waltham, MA, USA). The absorbance of crystal violet in treated cells was expressed as a percentage of absorbance in untreated cells. Each condition was measured at least in triplicate.
# For the resazurin assay, 200 μL of the culture medium of each well was exchanged for 100 μL of resazurin (stock solution 30 mg/mL; Sigma, St. Louis, MO, USA) diluted 10 times in the culture medium, and the cells were incubated at 37°C for 1–3 h. Reading of fluorescence was done using a microplate reader (PerkinElmer, Waltham, MA, USA). Absolute values of fluorescence were related to the values of untreated cells. Each condition was measured at least in triplicate.
compound,measurement,setting,value
"Nc1ccc(C(=O)Nc2cccc(-c3c[nH]c4ncccc34)c2)cc1O [Compound 3, N-(3-(1H-pyrrolo[2,3-b]pyridin-3-yl)phenyl)-4-amino-3-hydroxybenzamide]",effect on the readout of crystal violet and resazurin assays,[1],similarly to proliferating U87 cells
same,cell phenotype in time-lapse microscopy,"U87 cells; proliferating U87, 100 μM, 72 h",rapid loss of cell spreading with a lack of mitotic activity and progressively occurring cell death
same,induction of apoptosis (annexin V staining),"U87 cells; time-lapse microscopy 72 h, 0–100 μM, Figure 5G",confirmed
same,"effect on cell proliferation (cell confluence, time-lapse)",RPE-1 cells,showed the effect on RPE-1 cell proliferation
same,effect on the readout of crystal violet and resazurin assays,"BJ, RPE-1 and U373 cells",significant suppressive effect
